Literature values, collected in US20240293789A1, “Encapsulation of Functional Additives in Partially-Open Microcapsules” (priority 2023, published 2024).

Conditions: common solvents used for the encapsulated materials; reference table
In the case of COCCOC [1,2-dimethoxy-ethane (glyme, DME), 1,2-dimethoxy-ethane], the solubility in water is given as “Miscible”.
For CN(C)P(N(C)C)N(C)C [Hexamethylphosphorous triamide (HMPT), Hexamethylphosphorous triamide], the solubility in water is given as “Miscible”.
In the case of C1CCCCC1 [cyclohexane], the solubility in water is listed as 0.0055 g/100 g.
For CCOCC [diethyl ether], the solubility in water is given as 7.5 g/100 g.
For COCCOCCOC [diethylene glycol dimethyl ether], the solubility in water is given as “Miscible”.
For CCO [ethanol], the solubility in water is listed as “Miscible”.
For CCOC(C)=O [ethyl acetate], the solubility in water is listed as 8.7 g/100 g.
In the case of OCC(O)CO [glycerin], the solubility in water is listed as “Miscible”.
In the case of CCCCCCC [heptane], the solubility in water is given as 0.01 g/100 g.
In the case of CCCCCC [hexane], the solubility in water is listed as 0.0014 g/100 g.
In the case of Cc1cccc(C)c1 [m-xylene], the solubility in water is listed as “Insoluble”.
In the case of Cc1ccccc1C [o-xylene], the solubility in water is given as “Insoluble”.
For Cc1ccc(C)cc1 [p-xylene], the solubility in water is listed as “Insoluble”.
In the case of CCCCC [pentane], the solubility in water is given as 0.04 g/100 g.
